Measured values from US20240342138A1, “MICROTUBULE TARGETING AGENTS” (BPGbio, Inc., priority 2023, published 2024).
Where two headings read alike, the source gives them in different places.

What was measured:
[1] = Biodistribution after oral administration; format: in vivo, Sprague-Dawley Rats; settings: 75 mg/kg oral; for concentration at 8 h / Kp at 8 h / concentration at 0.25 h / Kp at 0.25 h / concentration at 2 h / Kp at 2 h: male, Sprague-Dawley, rat; for concentration at 8 h / concentration at 0.25 h / concentration at 2 h: read-out: Mean plasma/tissue concentration; for Kp at 8 h / Kp at 0.25 h / Kp at 2 h: read-out: Ratio (tissue to plasma)
Experimental: Male Sprague-Dawley Rats (total of 6 animals) 6 to 8 weeks of age (210-227 g) was used in this biodistribution study. Compound 1 was dosed at 75 mg/kg to all animals through oral route of administration at a 10 ml/kg dose volume. Compound 1 formulation was freshly prepared in Tween-80+0.5% methyl cellulose and maintained at room temperature until dosing. Dose was administered in all animals under fasted conditions. […] Heart, lung, liver, kidney, stomach, small intestine, large intestine, skeletal muscle, brain, spleen, pancreas and adipose were harvested while blood was processed to plasma for bioanalytical quantification of Compound 1.
Compound 1 bioanalytical assay was developed and validated using the SCIEX 6500 LC-MS/MS. A mobile phase (isocratic flow) comprised of Acetonitrile and 0.2% formic acid in MilliQ water in a Atlantis dC18-HPLC column (50×4.6 mm, […]), with a flow rate of 0.9 mL/min and a run time of 2.20 min. Mass transition (m/z) of 375.040 and 188.100 was used for detection of Compound 1 at an LLOQ of 2.14 ng/mL.

[2] = system: Triple Negative Breast Cancer patient-derived organoids CTG-1520, CTG-0896, CTG-1017; assay: Viability of PDO models of taxane resistance (CellTiter-Glo, 5 days); format: cell-based, human
Experimental: FIGS. 9A and 9B show potency of Compound 1 in patient-derived organoid (PDO) models of taxane resistance. Patient-derived organoids were treated with Compound 1, paclitaxel or controls (0.1% DMSO, positive control—10% DMSO) for 5 days. Viability was assessed using the CellTiter-Glo® assay. IC50 and maximal (max) inhibition values were extrapolated from the viability curves. A) Model overview and dose response curves to Compound 1 and paclitaxel. B) Summary of CellTiter-Glo results in all three models tested. Compiled data of N=4 replicates.
CTG-1520 and CTG-0896 were derived from Triple Negative Breast Cancer (TNBC) patients post-treatment, and progression on a taxane-based therapy and the models' resistance to paclitaxel was confirmed by testing in vivo PDX (Patient-derived xenograft) tumor growth. […] Compound 1 and paclitaxel were tested head-to-head in each model in a dose-curve setting. 10% DMSO was used as the positive control for induction of 100% cell cytotoxicity.

COc1ccccc1-c1nc(CNC(=O)c2ccccc2OC(F)F)n[nH]1 [Compound 1, 2-(difluoromethoxy)-N-[[5-(2-methoxyphenyl)-1H-1,2,4-triazol-3-yl]methyl]benzamide]
Tissue distribution [1]: Drug distribution was revealed across all tissues | Blood brain barrier penetration ([1]; 8 hours): brain barrier penetration observed | Percentage (plasma to tissue) ([1]; Adipose tissue, 0.25 hours): 1.94% | Percentage (plasma to tissue) ([1]; Adipose tissue, 2 hours): 2.36% | Percentage (plasma to tissue) ([1]; Adipose tissue, 8 hours): 3.06% | Percentage (plasma to tissue) ([1]; Brain, 0.25 hours): 0.79% | Percentage (plasma to tissue) ([1]; Brain, 2 hours): 0.57% | Percentage (plasma to tissue) ([1]; Brain, 8 hours): 2.18% | Percentage (plasma to tissue) ([1]; Heart, 0.25 hours): 1.89% | Percentage (plasma to tissue) ([1]; Heart, 2 hours): 2.59% | Percentage (plasma to tissue) ([1]; Heart, 8 hours): 4.19% | Percentage (plasma to tissue) ([1]; Kidney, 0.25 hours): 2.99% | Percentage (plasma to tissue) ([1]; Kidney, 2 hours): 2.92% | Percentage (plasma to tissue) ([1]; Kidney, 8 hours): 4.16% | Percentage (plasma to tissue) ([1]; Liver, 0.25 hours): 12.5% | Percentage (plasma to tissue) ([1]; Liver, 2 hours): 10.6% | Percentage (plasma to tissue) ([1]; Liver, 8 hours): 16.5% | Percentage (plasma to tissue) ([1]; Lungs, 0.25 hours): 3.91% | Percentage (plasma to tissue) ([1]; Lungs, 2 hours): 2.93% | Percentage (plasma to tissue) ([1]; Lungs, 8 hours): 5.06% | Percentage (plasma to tissue) ([1]; Pancreas, 0.25 hours): 3.42% | Percentage (plasma to tissue) ([1]; Pancreas, 2 hours): 3.18% | Percentage (plasma to tissue) ([1]; Pancreas, 8 hours): 7.60% | Percentage (plasma to tissue) ([1]; Plasma, 0.25 hours): 3.59% | Percentage (plasma to tissue) ([1]; Plasma, 2 hours): 2.29% | Percentage (plasma to tissue) ([1]; Plasma, 8 hours): 5.37% | Percentage (plasma to tissue) ([1]; Skeletal Muscle, 0.25 hours): 0.77% | Percentage (plasma to tissue) ([1]; Skeletal Muscle, 2 hours): 0.85% | Percentage (plasma to tissue) ([1]; Skeletal Muscle, 8 hours): 20.5% | Percentage (plasma to tissue) ([1]; Small intestine, 0.25 hours): 21.9% | Percentage (plasma to tissue) ([1]; Small intestine, 2 hours): 21.9% | Percentage (plasma to tissue) ([1]; Small intestine, 8 hours): 4.82% | Percentage (plasma to tissue) ([1]; Spleen, 0.25 hours): 4.26% | Percentage (plasma to tissue) ([1]; Spleen, 2 hours): 1.68% | Percentage (plasma to tissue) ([1]; Spleen, 8 hours): 7.84% | Percentage (plasma to tissue) ([1]; Stomach, 0.25 hours): 42.7% | Percentage (plasma to tissue) ([1]; Stomach, 2 hours): 48.1% | Percentage (plasma to tissue) ([1]; Stomach, 8 hours): 18.8% | concentration at 8 h ([1]; lung, Lungs, 8 hours): 78.2 ng/g | Kp at 8 h ([1]; lung, Lungs, 8 hours): 0.94 | concentration at 0.25 h ([1]; Adipose tissue, 0.25 hours): 1530 ng/g | Kp at 0.25 h ([1]; Adipose tissue, 0.25 hours): 0.54 | concentration at 2 h ([1]; Adipose tissue, 2 hours): 2030 ng/g | Kp at 2 h ([1]; Adipose tissue, 2 hours): 1.03 | concentration at 8 h ([1]; Adipose tissue, 8 hours): 47.2 ng/g | Kp at 8 h ([1]; Adipose tissue, 8 hours): 0.57 | concentration at 0.25 h ([1]; Brain, 0.25 hours): 624 ng/g | Kp at 0.25 h ([1]; Brain, 0.25 hours): 0.22 | concentration at 2 h ([1]; Brain, 2 hours): 494 ng/g | Kp at 2 h ([1]; Brain, 2 hours): 0.25 | concentration at 8 h ([1]; Brain, 8 hours): 33.6 ng/g | Kp at 8 h ([1]; Brain, 8 hours): 0.4 | concentration at 0.25 h ([1]; Heart, 0.25 hours): 1490 ng/g | Kp at 0.25 h ([1]; Heart, 0.25 hours): 0.53 | concentration at 2 h ([1]; Heart, 2 hours): 2230 ng/g | Kp at 2 h ([1]; Heart, 2 hours): 1.13 | concentration at 8 h ([1]; Heart, 8 hours): 64.8 ng/g | Kp at 8 h ([1]; Heart, 8 hours): 0.78 | concentration at 0.25 h ([1]; Kidney, 0.25 hours): 2360 ng/g | Kp at 0.25 h ([1]; Kidney, 0.25 hours): 0.83 | concentration at 2 h ([1]; Kidney, 2 hours): 2520 ng/g | Kp at 2 h ([1]; Kidney, 2 hours): 1.27 | concentration at 8 h ([1]; Kidney, 8 hours): 64.2 ng/g | Kp at 8 h ([1]; Kidney, 8 hours): 0.77 | concentration at 0.25 h ([1]; Liver, 0.25 hours): 9890 ng/g | Kp at 0.25 h ([1]; Liver, 0.25 hours): 3.49 | concentration at 2 h ([1]; Liver, 2 hours): 9140 ng/g | Kp at 2 h ([1]; Liver, 2 hours): 4.63 | concentration at 8 h ([1]; Liver, 8 hours): 255 ng/g | Kp at 8 h ([1]; Liver, 8 hours): 3.06 | concentration at 0.25 h ([1]; Lungs, 0.25 hours): 3090 ng/g | Kp at 0.25 h ([1]; Lungs, 0.25 hours): 1.09 | concentration at 2 h ([1]; Lungs, 2 hours): 2520 ng/g | Kp at 2 h ([1]; Lungs, 2 hours): 1.28 | concentration at 0.25 h ([1]; Pancreas, 0.25 hours): 2700 ng/g | Kp at 0.25 h ([1]; Pancreas, 0.25 hours): 0.95 | concentration at 2 h ([1]; Pancreas, 2 hours): 2740 ng/g | Kp at 2 h ([1]; Pancreas, 2 hours): 1.39 | concentration at 8 h ([1]; Pancreas, 8 hours): 117 ng/g | Kp at 8 h ([1]; Pancreas, 8 hours): 1.41 | concentration at 0.25 h ([1]; Plasma, 0.25 hours): 2830 ng/mL | concentration at 2 h ([1]; Plasma, 2 hours): 1980 ng/mL | concentration at 8 h ([1]; Plasma, 8 hours): 83.1 ng/mL | concentration at 0.25 h ([1]; Skeletal Muscle, 0.25 hours): 607 ng/g | Kp at 0.25 h ([1]; Skeletal Muscle, 0.25 hours): 0.21 | concentration at 2 h ([1]; Skeletal Muscle, 2 hours): 734 ng/g | Kp at 2 h ([1]; Skeletal Muscle, 2 hours): 0.37 | concentration at 8 h ([1]; Skeletal Muscle, 8 hours): 316 ng/g | Kp at 8 h ([1]; Skeletal Muscle, 8 hours): 3.81 | concentration at 0.25 h ([1]; Small intestine, 0.25 hours): 16700 ng/g | Kp at 0.25 h ([1]; Small intestine, 0.25 hours): 5.9 | concentration at 2 h ([1]; Small intestine, 2 hours): 18800 ng/g | Kp at 2 h ([1]; Small intestine, 2 hours): 9.53 | concentration at 8 h ([1]; Small intestine, 8 hours): 74.4 ng/g | Kp at 8 h ([1]; Small intestine, 8 hours): 0.9 | concentration at 0.25 h ([1]; Spleen, 0.25 hours): 3360 ng/g | Kp at 0.25 h ([1]; Spleen, 0.25 hours): 1.19 | concentration at 2 h ([1]; Spleen, 2 hours): 1450 ng/g | Kp at 2 h ([1]; Spleen, 2 hours): 0.73 | concentration at 8 h ([1]; Spleen, 8 hours): 121 ng/g | Kp at 8 h ([1]; Spleen, 8 hours): 1.46 | concentration at 0.25 h ([1]; Stomach, 0.25 hours): 33700 ng/g | Kp at 0.25 h ([1]; Stomach, 0.25 hours): 11.9 | concentration at 2 h ([1]; Stomach, 2 hours): 41500 ng/g | Kp at 2 h ([1]; Stomach, 2 hours): 21 | concentration at 8 h ([1]; Stomach, 8 hours): 290 ng/g | Kp at 8 h ([1]; Stomach, 8 hours): 3.5 | Potency in PDO models ([2]; CTG-1520, CTG-0896, CTG-1017, FIG. 9): potent in all three (3) PDO models tested | Retention of potency in matched PDO models ([2]; same patient before (CTG-1017) and after (CTG-1520) taxane-based chemotherapy): retained potency
